From the supplement of paper PMC12420376

How the values were obtained:
Test in all cases: cell viability relative to untreated control (ex vivo patient spheroids); higher = less cytotoxic
Details in all cases: 72 h
[1] = system: Gem015 (ex vivo spheroids of an HRD-positive high-grade serous ovarian cancer)
Description: (§1)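 Ex vivo 3D spheroid cultures from dissociated tumours of HGSOC patients (DET3CT platform) were treated for 72 h with dose matrices of carboplatin combined with birinapant or vorinostat (nM). Live (TMRM) and dead (POPO-1) cells were imaged and viability was expressed as % of untreated control.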

[2] = system: Gem030 (ex vivo spheroids of an HRD-positive high-grade serous ovarian cancer)
Description: as §1

[3] = system: Gem059 (ex vivo spheroids of an HRD-negative high-grade serous ovarian cancer)
Description: as §1

[4] = system: Gem105 (ex vivo spheroids of an HRD-negative high-grade serous ovarian cancer)
Description: as §1

[5] = system: Gem119 (ex vivo spheroids of an HRD-positive high-grade serous ovarian cancer)
Description: as §1

O=C(O)C1(C(=O)O)CCC1.[NH2-].[NH2-].[Pt+2] [Carboplatin] + CC[C@H](NC(=O)[C@H](C)NC)C(=O)N1C[C@@H](O)C[C@H]1Cc1c(-c2[nH]c3cc(F)ccc3c2C[C@@H]2C[C@H](O)CN2C(=O)[C@H](CC)NC(=O)[C@H](C)NC)[nH]c2cc(F)ccc12 [Birinapant]
cell viability [%]
Details | partner drug concentration 0 nM | partner drug concentration 0.1 nM | partner drug concentration 1 nM | partner drug concentration 10 nM | partner drug concentration 100 nM | partner drug concentration 1000 nM
[1], carboplatin concentration 10 nM | – | 100 | 93.1 | 93.5 | 82 | 55.1
[1], carboplatin concentration 100 nM | – | 98.5 | 90 | 101 | 77 | 67.2
[1], carboplatin concentration 1000 nM | – | 103 | 89.1 | 81.6 | 85.2 | 59.3
[1], carboplatin concentration 10000 nM | 91.1 | 73.5 | 97.6 | 89.5 | 84.6 | 59
[1], carboplatin concentration 100000 nM | 61.2 | 58.2 | 75.8 | 73.6 | 58.7 | 39.9
[2], carboplatin concentration 10 nM | – | 99.1 | 105 | 99.7 | 95.4 | 59.2
[2], carboplatin concentration 100 nM | – | 106 | 115 | 102 | 92.5 | 60.8
[2], carboplatin concentration 1000 nM | – | 104 | 91.7 | 101 | 88.9 | 59.8
[2], carboplatin concentration 10000 nM | 105 | 102 | 99.6 | 94.2 | 90.1 | 59.3
[2], carboplatin concentration 100000 nM | 52.2 | 60.7 | 68 | 68.4 | 47.1 | 27.3
[3], carboplatin concentration 10 nM | – | 109 | 101 | 119 | 105 | 102
[3], carboplatin concentration 100 nM | – | 99.2 | 99.2 | 122 | 97.4 | 106
[3], carboplatin concentration 1000 nM | – | 89.4 | 109 | 117 | 106 | 118
[3], carboplatin concentration 10000 nM | 100 | 102 | 99.8 | 97.5 | 112 | 99
[3], carboplatin concentration 100000 nM | 77.4 | 82.5 | 97.3 | 79.6 | 85.4 | 90.7
[4], carboplatin concentration 10 nM | – | 102 | 90.8 | 94.9 | 105 | 72.5
[4], carboplatin concentration 100 nM | – | 102 | 82 | 100 | 89.4 | 79.4
[4], carboplatin concentration 1000 nM | – | 110 | 89.4 | 109 | 89.2 | 87.6
[4], carboplatin concentration 10000 nM | 91.9 | 97.7 | 83.8 | 92.5 | 80 | 81.6
[4], carboplatin concentration 100000 nM | 38.7 | 41.1 | 51.4 | 42.1 | 30.3 | 27.6
[5], carboplatin concentration 10 nM | – | 83.3 | 107 | 102 | 90.8 | 67.6
[5], carboplatin concentration 100 nM | – | 83.6 | 112 | 74.4 | 90.8 | 66.8
[5], carboplatin concentration 1000 nM | – | 111 | 107 | 100 | 117 | 86
[5], carboplatin concentration 10000 nM | 112 | 96.4 | 72.9 | 116 | 110 | 81.3
[5], carboplatin concentration 100000 nM | 75.9 | 65.3 | 86.1 | 54.4 | 69.5 | 62.6

O=C(O)C1(C(=O)O)CCC1.[NH2-].[NH2-].[Pt+2] [Carboplatin] + O=C(CCCCCCC(=O)Nc1ccccc1)NO [Vorinostat]
cell viability [%]
Details | partner drug concentration 0 nM | partner drug concentration 1 nM | partner drug concentration 10 nM | partner drug concentration 100 nM | partner drug concentration 1000 nM | partner drug concentration 10000 nM
[1], carboplatin concentration 10 nM | 85.7 | 100 | 97.5 | 97.6 | 76.3 | 35.6
[1], carboplatin concentration 100 nM | 97.2 | 94.2 | 92.8 | 93.8 | 79.3 | 37.7
[1], carboplatin concentration 1000 nM | 88.1 | 96.2 | 91.6 | 91.3 | 71.6 | 36.2
[1], carboplatin concentration 10000 nM | 91.1 | 84.9 | 97.1 | 95.6 | 77.2 | 36.1
[1], carboplatin concentration 100000 nM | 61.2 | 71.2 | 77.1 | 74.6 | 63.5 | 32.3
[2], carboplatin concentration 10 nM | 94 | 101 | 104 | 115 | 100 | 47.4
[2], carboplatin concentration 100 nM | 102 | 108 | 107 | 98.2 | 101 | 40.2
[2], carboplatin concentration 1000 nM | 107 | 110 | 115 | 105 | 106 | 41
[2], carboplatin concentration 10000 nM | 105 | 116 | 102 | 111 | 91.1 | 40
[2], carboplatin concentration 100000 nM | 52.2 | 87.2 | 69.8 | 65.9 | 67.5 | 17.9
[3], carboplatin concentration 10 nM | 109 | 99.3 | 91.5 | 110 | 103 | 86.5
[3], carboplatin concentration 100 nM | 107 | 102 | 105 | 114 | 102 | 95.8
[3], carboplatin concentration 1000 nM | 91.5 | 107 | 104 | 96.5 | 110 | 94.4
[3], carboplatin concentration 10000 nM | 100 | 103 | 116 | 101 | 114 | 95
[3], carboplatin concentration 100000 nM | 77.4 | 81.7 | 81.9 | 71.5 | 85 | 71.2
[4], carboplatin concentration 10 nM | 105 | 82.6 | 99.6 | 94.3 | 86.4 | 33.3
[4], carboplatin concentration 100 nM | 103 | 90.7 | 96.2 | 93.6 | 84.9 | 34.5
[4], carboplatin concentration 1000 nM | 89.2 | 102 | 93.5 | 112 | 84.8 | 39.9
[4], carboplatin concentration 10000 nM | 91.9 | 105 | 93.4 | 100 | 79.4 | 36
[4], carboplatin concentration 100000 nM | 38.7 | 52.6 | 54 | 53.8 | 31.9 | 10.5
[5], carboplatin concentration 10 nM | 102 | 90 | 102 | 93.8 | 93 | 26.9
[5], carboplatin concentration 100 nM | 124 | 105 | 103 | 118 | 94.6 | 45.7
[5], carboplatin concentration 1000 nM | 99.4 | 110 | 92 | 110 | 92.7 | 30.3
[5], carboplatin concentration 10000 nM | 112 | 93.7 | 96.1 | 70.3 | 100 | 17.2
[5], carboplatin concentration 100000 nM | 75.9 | 50.1 | 81.2 | 44.7 | 58.9 | 9.6
